From patent publication US20110065694A1 (priority 2009, published 2011)
Where two headings read alike, the source gives them in different places.

Molecular target: human histamine H3 receptor (Homo sapiens, UniProt Q9Y5N1)
Test: H3 GTPγS assay (SPA method), histamine H3 in vitro assay
Format: biochemical
Procedure: Briefly, cells expressing the human histamine H3 receptor were homogenized in 15 mM Tris-HCl pH 7.5, 2 mM MgCl2, 0.3 mM EDTA, and 1 mM EGTA. […] Membranes were frozen in liquid nitrogen until use. On the day of the assay, membranes were thawed and diluted in assay buffer (20 mM HEPES pH 7.4, 100 mM NaCl, 10 μg/ml saponin, 1 mM MgCl2) to give 500 μg/ml and mixed (v/v) with GDP in assay buffer for a final GDP concentration of 10 μM and incubated on ice for at least […]. PVT-WGA beads (Amersham, RPNQ001) were diluted in assay buffer at 50 mg/mL and mixed with GTPγ[^35S] (Amersham, SJ1308) diluted in assay buffer to give ˜25,000 dpm/10 μL and mixed vol/vol just before the start of the reaction.
For antagonists testing, 10 μL of a reference agonist ([…]) instead of 10 μL buffer was added at a concentration corresponding to the EC80 (30 nM).
The compounds provided herein were tested in the histamine H3 in vitro assay. In one embodiment, the respective HCl salts of the compounds provided herein were prepared using standard chemical procedures and tested in the histamine H3 in vitro assay.

[1] = membranes of cells expressing human H3, GTPγ[35S] SPA, antagonist testing with reference agonist at EC80 (30 nM), in one embodiment HCl salts tested, read-out: Potency (functional potency as indicated by IC50)

Sequence of human histamine H3 receptor (Q9Y5N1 whole entry): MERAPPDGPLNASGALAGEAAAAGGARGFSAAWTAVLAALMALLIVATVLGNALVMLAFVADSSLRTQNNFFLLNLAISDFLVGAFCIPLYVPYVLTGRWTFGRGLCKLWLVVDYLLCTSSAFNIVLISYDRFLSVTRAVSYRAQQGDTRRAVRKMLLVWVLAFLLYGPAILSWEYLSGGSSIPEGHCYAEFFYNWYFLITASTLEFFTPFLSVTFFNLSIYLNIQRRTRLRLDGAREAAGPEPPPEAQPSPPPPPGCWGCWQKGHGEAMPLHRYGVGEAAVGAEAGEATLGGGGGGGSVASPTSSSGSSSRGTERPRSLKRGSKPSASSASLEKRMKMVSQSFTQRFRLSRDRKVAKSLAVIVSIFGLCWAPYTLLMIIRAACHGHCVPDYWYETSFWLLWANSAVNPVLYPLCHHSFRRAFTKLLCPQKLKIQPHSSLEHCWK

Structure (SMILES)	IC50 [1]	IC50
Clc1ccc2c(c1)nc1n2C2CCC1CN(C1CCC1)C2 (centres unmarked) [Compound 25, 8-chloro-3-cyclobutyl-2,3,4,5-tetrahydro-1H-1,5-ethanobenzo[4,5]imidazo[1,2-d][1,4]diazepine]	< 1000 nM	
N#Cc1ccc(-c2ccc3c(c2)nc2n3CC3CC2CN3C2CCC2)cc1 (centres unmarked) [Compound 36, 4-(3-cyclobutyl-2,3,4,5-tetrahydro-1H-2,5-methanobenzo[4,5]imidazo[1,2-d][1,4]diazepin-8-yl)benzonitrile]	< 1000 nM	
c1ccc2c(c1)ncn2-c1ccc2c(c1)nc1n2CC2CC1CN2C1CCC1 (centres unmarked) [Compound 38, 8-(1H-benzo[d]imidazol-1-yl)-3-cyclobutyl-2,3,4,5-tetrahydro-1H-2,5-methanobenzo[4,5]imidazo[1,2-d][1,4]diazepine]	< 1000 nM	
CC(=O)Nc1ccc(-c2ccc3c(c2)nc2n3C3CCC2CN(C2CCC2)C3)cc1 (centres unmarked) [Compound 27, N-(4-(3-cyclobutyl-2,3,4,5-tetrahydro-1H-1,5-ethanobenzo[4,5]imidazo[1,2-d][1,4]diazepin-8-yl)phenyl)acetamide]	< 100 nM	
c1cn2cc(-c3ccc4c(c3)nc3n4CCN4CCCC4C3)ccc2n1 (centres unmarked) [Compound 74, 10-(imidazo[1,2-a]pyridin-6-yl)-2,3,5,6,13,13a-hexahydro-1H-benzo[4,5]imidazo[1,2-d]pyrrolo[2,1-g][1,4]diazepine]	< 10 nM	
c1cc2cc(-c3ccc4c(c3)nc3n4CC4CCC(C3)N4C3CCC3)ccc2[nH]1 (centres unmarked) [Compound 22, 13-cyclobutyl-3-(1H-indol-5-yl)-6,7,8,9,10,11-hexahydro-7,10-epiminobenzo[4,5]imidazo[1,2-a]azocine]	< 100 nM	
N#Cc1ccc(-c2ccc3c(c2)nc2n3CCN3CCC[C@H]3C2)cc1 [Compound 2, (S)-4-(2,3,5,6,13,13a-hexahydro-1H-benzo[4,5]imidazo[1,2-d]pyrrolo[2,1-g][1,4]diazepin-10-yl)benzonitrile]		< 100 nM
c1coc(-c2ccc3c(c2)nc2n3C3CCC2CN(C2CCC2)C3)c1 (centres unmarked) [Compound 29, 3-cyclobutyl-8-(furan-2-yl)-2,3,4,5-tetrahydro-1H-1,5-ethanobenzo[4,5]imidazo[1,2-d][1,4]diazepine]	< 1000 nM	
c1cn2cc(-c3ccc4c(c3)nc3n4CCCN4CCCC4C3)ccc2n1 (centres unmarked) [Compound 81, 11-(imidazo[1,2-a]pyridin-6-yl)-1,2,3,5,6,7,14,14a-octahydrobenzo[4,5]imidazo[1,2-a]pyrrolo[2,1-d][1,5]diazocine]	< 10 nM	
c1cn2cc(-c3ccc4c(c3)nc3n4CCCN4CCCCC4C3)ccc2n1 (single isomer, unassigned) [Compound 70]	< 10 nM	
c1cc2cc(-c3ccc4c(c3)nc3n4C4CCC3CN(C3CCC3)C4)ccc2[nH]1 (centres unmarked) [Compound 28, 3-cyclobutyl-8-(1H-indol-5-yl)-2,3,4,5-tetrahydro-1H-1,5-ethanobenzo[4,5]imidazo[1,2-d][1,4]diazepine]	> 1000 nM	
N#Cc1ccc(-c2ccc3c(c2)nc2n3CC3CCC(C2)N3C2CCC2)cc1F (centres unmarked) [Compound 24, 4-(13-cyclobutyl-6,7,8,9,10,11-hexahydro-7,10-epiminobenzo[4,5]imidazo[1,2-a]azocin-3-yl)-2-fluorobenzonitrile]	< 10 nM	
Brc1ccc2c(c1)nc1n2CC2CCCN2CC1 (centres unmarked) [Compound 12, 9-bromo-2,3,5,6,13,13a-hexahydro-1H-benzo[4,5]imidazo[1,2-d]pyrrolo[1,2-a][1,4]diazepine]		> 1000 nM
Clc1ccc2c(c1)nc1n2CC2CCC(C1)N2C1CCC1 (centres unmarked) [Compound 18, 3-chloro-13-cyclobutyl-6,7,8,9,10,11-hexahydro-7,10-epiminobenzo[4,5]imidazo[1,2-a]azocine]	< 1000 nM	
Brc1ccc2c(c1)nc1n2CCN2CCCC2C1 (centres unmarked) [Compound 72, 10-bromo-2,3,5,6,13,13a-hexahydro-1H-benzo[4,5]imidazo[1,2-d]pyrrolo[2,1-g][1,4]diazepine]		< 100 nM
N#Cc1ccc(-c2ccc3c(c2)nc2n3CC3CCC(C2)N3C2CCC2)cc1 (single isomer, unassigned) [Compound 45]	< 1000 nM	
NCc1ccc(-c2ccc3c(c2)nc2n3CC3CCC(C2)N3C2CCC2)cc1 (centres unmarked) [Compound 23, (4-(13-cyclobutyl-6,7,8,9,10,11-hexahydro-7,10-epiminobenzo[4,5]imidazo[1,2-a]azocin-3-yl)phenyl)-methanamine]		< 10 nM
c1cc2c(cc1CN1CCOCC1)nc1n2CCCN2CCCCC2C1 (centres unmarked) [Compound 68, 4-((2,3,4,6,7,8,15,15a-octahydro-1H-benzo[4,5]imidazo[1,2-a]pyrido[2,1-d][1,5]diazocin-12-yl)methyl)morpholine]	< 100 nM	
c1cn2cc(-c3ccc4c(c3)nc3n4CCCN4CCCC4C3)ccc2n1 (single isomer, unassigned) [Compound 82]	< 10 nM	

More lines, main results first:

IC50 [1]	Structure (SMILES)	IC50
< 10 nM	c1cnc(-c2ccc3c(c2)nc2n3CCN3CCCCC3C2)cn1 (centres unmarked) [Compound 9, 11-(pyrazin-2-yl)-1,2,3,4,6,7,14,14a-octahydrobenzo[4,5]imidazo[1,2-d]pyrido[2,1-g][1,4]diazepine]	
> 1000 nM	Clc1ccc2c(c1)nc1n2C2CC(C1)N(C1CCC1)C2 (centres unmarked) [Compound 32, 8-chloro-3-cyclobutyl-2,3,4,5-tetrahydro-1H-1,4-methanobenzo[4,5]imidazo[1,2-d][1,4]diazepine]	
> 1000 nM	c1coc(-c2ccc3c(c2)nc2n3CC3CCCN3CC2)c1 (centres unmarked) [Compound 14, 9-(furan-2-yl)-2,3,5,6,13,13a-hexahydro-1H-benzo[4,5]imidazo[1,2-d]pyrrolo[1,2-a][1,4]diazepine]	
< 10 nM	CN1CCN(c2ccc3c(c2)nc2n3CCN3CCCCC3C2)CC1 (centres unmarked) [Compound 11, 11-(4-methylpiperazin-1-yl)-1,2,3,4,6,7,14,14a-octahydrobenzo[4,5]imidazo[1,2-d]pyrido[2,1-g][1,4]diazepine]	
< 100 nM	c1cc2c(cc1CN1CCOCC1)nc1n2CCN2CCCCC2C1 (single isomer, unassigned) [Compound 51]	
< 1000 nM	CC1Cn2c(nc3cc(Br)ccc32)CCN1C1CCC1 (centres unmarked) [Compound 42, 8-bromo-3-cyclobutyl-2-methyl-2,3,4,5-tetrahydro-1H-benzo[4,5]imidazo[1,2-d][1,4]diazepine]	
< 10 nM	c1cc2c(cc1CN1CCOCC1)nc1n2CCN2CCCC2C1 (centres unmarked) [Compound 75, 4-((2,3,5,6,13,13a-hexahydro-1H-benzo[4,5]imidazo[,2-d]pyrrolo[2,1-g][1,4]diazepin-10-yl)methyl)morpholine]	
< 100 nM	CC(=O)Nc1ccc(-c2ccc3c(c2)nc2n3CCN3CCC[C@H]3C2)cc1 [Compound 3, (S)-N-(4-(2,3,5,6,13,13a-hexahydro-1H-benzo[4,5]imidazo[1,2-d]pyrrolo[2,1-g][1,4]diazepin-10-yl)phenyl)acetamide]	
< 1000 nM	N#Cc1ccc(-c2ccc3c(c2)nc2n3CCN(C3CCC3)C2)cc1 [Compound 53, 4-(2-cyclobutyl-1,2,3,4-tetrahydrobenzo-[4,5]imidazo[1,2-a]pyrazin-8-yl)benzonitrile]	
> 1000 nM	c1cnc(-c2ccc3c(c2)nc2n3CCN3CCC[C@H]3C2)cn1 [Compound 6, (S)-10-(pyrazin-2-yl)-2,3,5,6,13,13a-hexahydro-1H-benzo[4,5]imidazo[1,2-d]pyrrolo[2,1-g][1,4]diazepine]	
< 1000 nM	c1cn2cc(-c3ccc4c(c3)nc3n4CCN(C4CCC4)C3)ccc2n1 [Compound 54, 2-cyclobutyl-8-(imidazo[1,2-a]pyridin-6-yl)-1,2,3,4-tetrahydrobenzo[4,5]imidazo[1,2-a]pyrazine]	
< 10 nM	c1cc2c(cc1CN1CCOCC1)nc1n2CCN2CCCCC2C1 (centres unmarked) [Compound 17, 4-((1,2,3,4,6,7,14,14a-octahydrobenzo[4,5]imidazo[1,2-d]pyrido[2,1-g][1,4]diazepin-11-yl)methyl)morpholine]	
< 100 nM	N#Cc1ccc(-c2ccc3c(c2)nc2n3CCN3CCCCC3C2)cc1 (single isomer, unassigned) [Compound 46]	
< 1000 nM	N#Cc1ccc(-c2ccc3c(c2)nc2n3CC3CCCN3CC2)cc1 (centres unmarked) [Compound 13, 4-(2,3,5,6,13,13a-hexahydro-1H-benzo[4,5]imidazo[1,2-d]pyrrolo[1,2-a][1,4]diazepin-9-yl)benzonitrile]	
< 1000 nM	c1cn2cc(-c3ccc4c(c3)nc3n4C4CC(C3)N(C3CCC3)C4)ccc2n1 (centres unmarked) [Compound 34, 3-cyclobutyl-8-(imidazo[1,2-a]pyridin-6-yl)-2,3,4,5-tetrahydro-1H-1,4-methanobenzo[4,5]imidazo[1,2-d][1,4]diazepine]	
< 10 nM	c1cc2c(cc1CN1CCOCC1)nc1n2CCN2CCCCC2C1 (single isomer, unassigned) [Compound 50]	
< 10 nM	c1cn(-c2ccc3c(c2)nc2n3CCN3CCCCC3C2)cn1 (centres unmarked) [Compound 10, 11-(1H-imidazol-1-yl)-1,2,3,4,6,7,14,14a-octahydrobenzo[4,5]imidazo[1,2-d]pyrido[2,1-g][1,4]diazepine]	
< 1000 nM	Clc1ccc2c(c1)nc1n2CC2CC1CN2C1CCC1 (centres unmarked) [Compound 35, 8-chloro-3-cyclobutyl-2,3,4,5-tetrahydro-1H-2,5-methanobenzo[4,5]imidazo[1,2-d][1,4]diazepine]	
< 100 nM	CC1Cn2c(nc3cc(-c4ccc(C#N)cc4)ccc32)CCN1C1CCC1 (centres unmarked) [Compound 43, 4-(3-cyclobutyl-2-methyl-2,3,4,5-tetrahydro-1H-benzo[4,5]imidazo[1,2-d][1,4]diazepin-8-yl)benzonitrile]	
